From US6737383B1, “Herbicidal oxadiazolidines” (priority 1999, dated 2004)

Columns and labels:
cocklebur = experiment: Test C postemergence cocklebur; type: in vivo, Xanthium strumarium; settings: 0 to 100 scale, 0 no effect, 100 complete control
Method in brief: (§1)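 Compounds in a non-phytotoxic solvent mixture with surfactant were sprayed postemergence on greenhouse-grown plants sized for treatment, in 60:40 sandy loam soil:potting mix. After about 14 to 21 days, injury was rated visually against untreated controls on a 0–100 scale (0 no effect, 100 complete control).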

common ragweed [1] = experiment: Test C postemergence common ragweed; type: in vivo, Ambrosia elatior; settings: 0 to 100 scale, 0 no effect, 100 complete control
Method in brief: as §1

annual bluegrass = experiment: Test E annual bluegrass; type: in vivo, Poa annua; settings: Postemergence; for Plant response rating, Annual bluegras: 0 to 100 scale; for Annual bluegras plant response rating: Rate 250 g/ha, 0 to 100 scale where 0 is no effect and 100 is complete control
Method: (§2) Compounds evaluated in this test were formulated in a non-phytotoxic solvent mixture which included a surfactant and applied to plants that were in the 1- to 4-leaf stage (postemergence application). A mixture of sandy loam soil and greenhouse potting mix in a 60:40 ratio was used for the postemergence test.
(§3) Plantings of these crops and weed species were adjusted to produce plants of appropriate size for the postemergence test. All plant species were grown using normal greenhouse practices. Crop and weed species include annual bluegrass (Poa annua), blackgrass (Alopecurus myosuroides), black nightshade (Solanum nigra), chickweed (Stellaria media), common poppy (Papaver rhoeas), deadnettle (Lamium amplexicaule), downy brome (Bromus tectorum), field violet (Viola arvensis), galium (Galium aparine), green foxtail (Setaria viridis), Italian ryegrass (Lolium multiflorum), jointed goatgrass (Aegilops cylindrica), kochia (Kochia scoparia), lambsquarters (Chenopodium album), littleseed canarygrass (Phalaris minor), rape (Brassica napus), redroot pigweed (Amaranthus retroflexus), Russian thistle (Salsola kali), scentless chamomile (Matricaria inodora), spring barley (Hordeum vulgare), sugar beet (Beta vulgaris), sunflower (Helianthus annuus), ivyleaf speedwell (Veronica hederaefolia), spring wheat (Triticum aestivum), winter wheat (Triticum aestivum), wild buckwheat (Polygonum convolvulus), wild mustard (Sinapis arvensis), wild oat (Avena fatua), windgrass (Apera spica-venti) and winter barley (Hordeum vulgare).
(§4) Treated plants and untreated controls were maintained in a greenhouse for approximately 21 to 28 days, after which all treated plants were compared to untreated controls and visually evaluated. […] A dash response (-) means no test result.

deadnettle = experiment: Test E deadnettle; type: in vivo, Lamium amplexicaule; settings: Postemergence; for Plant response rating, Deadnettle: 0 to 100 scale; for Deadnettle plant response rating: Rate 250 g/ha, 0 to 100 scale where 0 is no effect and 100 is complete control
Method: as §2, §3, §4

green foxtail [2] = experiment: Test E green foxtail; type: in vivo, Setaria viridis; settings: Postemergence; for Plant response rating, Green foxtail: 0 to 100 scale; for Green foxtail plant response rating: Rate 250 g/ha, 0 to 100 scale where 0 is no effect and 100 is complete control
Method in brief: (§5)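 Compound formulated with surfactant in a non-phytotoxic solvent (postemergence: young 1- to 4-leaf plants); held in greenhouse approx. 21–28 days; visual assessment against untreated plants.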

sunflower = experiment: Test E sunflower; type: in vivo, Helianthus annuus; settings: Postemergence; for Plant response rating, Sunflower: 0 to 100 scale; for Sunflower plant response rating: Rate 250 g/ha, 0 to 100 scale where 0 is no effect and 100 is complete control
Method in brief: as §5

wild mustard = experiment: Test E wild mustard; type: in vivo, Sinapis arvensis; settings: Postemergence; for Plant response rating, Wild mustard: 0 to 100 scale; for Wild mustard plant response rating: Rate 250 g/ha, 0 to 100 scale where 0 is no effect and 100 is complete control
Method in brief: as §5

windgrass = experiment: Test E windgrass; type: in vivo, Apera spica-venti; settings: Postemergence; for Plant response rating, Windgrass: 0 to 100 scale
Method in brief: as §5

common ragweed [3] = experiment: Test D common ragweed; type: in vivo, Ambrosia elatior; settings: Postemergence, 0 to 100 scale
guineagrass = experiment: Test D guineagrass; type: in vivo, Panicum maximum; settings: Postemergence, 0 to 100 scale
Spanishneedles = experiment: Test D Spanishneedles; type: in vivo, Bidens bipinnata; settings: Postemergence, 0 to 100 scale
black nightshade = experiment: Test E black nightshade; type: in vivo, Solanum nigra; settings: Preemergence; for Blk nightshade plant response rating (0 to 100 scale): Rate 250 g/ha
downy brome = experiment: Test E downy brome; type: in vivo, Bromus tectorum; settings: Preemergence; for Downy brome plant response rating (0 to 100 scale): Rate 250 g/ha
galium = experiment: Test E galium; type: in vivo, Galium aparine; settings: Preemergence; for Galium plant response rating (0 to 100 scale): Rate 250 g/ha
wild buckwheat = experiment: Test E wild buckwheat; type: in vivo, Polygonum convolvulus; settings: Preemergence; for Wild buckwheat plant response rating (0 to 100 scale): Rate 250 g/ha
Green foxtail [4] = experiment: Test D green foxtail; type: in vivo; settings: Postemergence, 0 to 100 scale, 0 no injury, 100 complete control
[5] = Rate 125 g/ha, 0 is no effect, 100 is complete control
[6] = Rate 500 g/ha, 0 is no effect, 100 is complete control
[7] = Rate 16 g/ha, 0 no injury, 100 complete control
[8] = Rate 32 g/ha, 0 no injury, 100 complete control
[9] = Rate 64 g/ha, 0 no injury, 100 complete control
[10] = Rate 125 g/ha, 0 no injury, 100 complete control
[11] = Rate 125 g/ha, 0 to 100 scale (0 no effect, 100 complete control)
[12] = Rate 500 g/ha, 0 to 100 scale where 0 is no effect and 100 is complete control

CC(C)N(C(=O)n1oc(=O)n(C2CC2)c1=O)c1ccc(F)cc1 [Compound 242]
Plant response rating, Cocklebur (cocklebur; Rate 140 g/ha): 0
Plant response rating, Cocklebur (cocklebur; Rate 280 g/ha): 0
Plant response rating, Cocklebur (cocklebur; Rate 560 g/ha): 0
Plant response rating, Cocklebur (cocklebur; Rate 1120 g/ha): 20
Plant response rating Common ragweed (common ragweed [1]; Rate 140 g/ha): 0
Plant response rating Common ragweed (common ragweed [1]; Rate 280 g/ha): 10
Plant response rating Common ragweed (common ragweed [1]; Rate 560 g/ha): 80
Plant response rating Common ragweed (common ragweed [1]; Rate 1120 g/ha): 80
Plant response rating, Annual bluegras (annual bluegrass; Rate 62 g/ha): 95
Plant response rating, Annual bluegras (annual bluegrass; [5]): 20
Annual bluegras plant response rating (annual bluegrass): 10
Plant response rating, Annual bluegras (annual bluegrass; [6]): 80
Plant response rating, Deadnettle (deadnettle; Rate 62 g/ha): 100
Plant response rating, Deadnettle (deadnettle; [5]): 10
Deadnettle plant response rating (deadnettle): 10
Plant response rating, Deadnettle (deadnettle; [6]): 50
Plant response rating, Green foxtail (green foxtail [2]; Rate 62 g/ha): 60
Plant response rating, Green foxtail (green foxtail [2]; [5]): 30
Green foxtail plant response rating (green foxtail [2]): 60
Plant response rating, Green foxtail (green foxtail [2]; [6]): 70
Plant response rating, Sunflower (sunflower; Rate 62 g/ha): 10
Plant response rating, Sunflower (sunflower; [5]): 10
Sunflower plant response rating (sunflower): 0
Plant response rating, Sunflower (sunflower; [6]): 20
Plant response rating, Wild mustard (wild mustard; Rate 62 g/ha): 0
Plant response rating, Wild mustard (wild mustard; [5]): 20
Wild mustard plant response rating (wild mustard): 20
Plant response rating, Wild mustard (wild mustard; [6]): 5
Plant response rating, Windgrass (windgrass; Rate 62 g/ha): 90
Plant response rating, Windgrass (windgrass; [5]): 95
Plant response rating, Windgrass (windgrass; [6]): 95
Plant response rating, C. ragweed (common ragweed [3]; [7]): 50
Plant response rating, C. ragweed (common ragweed [3]; [8]): 30
Plant response rating, C. ragweed (common ragweed [3]; [9]): 30
Plant response rating, C. ragweed (common ragweed [3]; [10]): 90
Plant response rating, C. ragweed (common ragweed [3]; Rate 250 g/ha): 100
Plant response rating, Guineagrass (guineagrass; [7]): 0
Plant response rating, Guineagrass (guineagrass; [8]): 100
Guineagrass plant response rating (guineagrass; [9]): 80
Plant response rating, Guineagrass (guineagrass; [9]): 0
Plant response rating, Guineagrass (guineagrass; [10]): 100
Plant response rating, Guineagrass (guineagrass; Rate 250 g/ha): 100
Plant response rating, Spanishneedles (Spanishneedles; [7]): 0
Plant response rating, Spanishneedles (Spanishneedles; [8]): 0
Spanishneedles plant response rating (Spanishneedles; [9]): 0
Spanishneedles plant response rating (Spanishneedles; [10]): 0
Plant response rating, Spanishneedles (Spanishneedles; Rate 250 g/ha): 100
Plant response rating, Blk nightshade (black nightshade; [11]): 70
Blk nightshade plant response rating (0 to 100 scale) (black nightshade): 95
Plant response rating, Blk nightshade (black nightshade; [12]): 95
Plant response rating, Downy brome (downy brome; [11]): 70
Downy brome plant response rating (0 to 100 scale) (downy brome): 100
Plant response rating, Downy brome (downy brome; [12]): 100
Plant response rating, Galium (galium; [11]): 0
Galium plant response rating (0 to 100 scale) (galium): 100
Plant response rating, Galium (galium; [12]): 100
Plant response rating, Wild buckwheat (wild buckwheat; [11]): 60
Wild buckwheat plant response rating (0 to 100 scale) (wild buckwheat): 70
Plant response rating, Wild buckwheat (wild buckwheat; [12]): 100
Plant response rating, Green foxtail (Green foxtail [4]; Rate 64 g/ha): 100
Plant response rating, Green foxtail (Green foxtail [4]; Rate 125 g/ha): 100

CC(C)N(C(=O)n1oc(=O)n(C)c1=O)c1ccc(F)cc1 [Compound 138]
Plant response rating, Cocklebur (cocklebur; Rate 140 g/ha): 0
Plant response rating, Cocklebur (cocklebur; Rate 280 g/ha): 0
Plant response rating, Cocklebur (cocklebur; Rate 560 g/ha): 0
Plant response rating, Cocklebur (cocklebur; Rate 1120 g/ha): 0
Plant response rating Common ragweed (common ragweed [1]; Rate 140 g/ha): 0
Plant response rating Common ragweed (common ragweed [1]; Rate 280 g/ha): 0
Plant response rating Common ragweed (common ragweed [1]; Rate 560 g/ha): 0
Plant response rating, Annual bluegras (annual bluegrass; Rate 125 g/ha): 0
Annual bluegras plant response rating (annual bluegrass): 10
Plant response rating, Deadnettle (deadnettle; Rate 125 g/ha): 0
Deadnettle plant response rating (deadnettle): 50
Plant response rating, Green foxtail (green foxtail [2]; Rate 125 g/ha): 15
Green foxtail plant response rating (green foxtail [2]): 70
Plant response rating, Sunflower (sunflower; Rate 125 g/ha): 0
Sunflower plant response rating (sunflower): 0
Plant response rating, Wild mustard (wild mustard; Rate 125 g/ha): 0
Wild mustard plant response rating (wild mustard): 0
Windgrass plant response rating (windgrass; Rate 250 g/ha, 0 to 100 scale where 0 is no effect and 100 is complete control): 95
Plant response rating, Blk nightshade (black nightshade; [11]): 85
Blk nightshade plant response rating (0 to 100 scale) (black nightshade): 95
Plant response rating, Downy brome (downy brome; [11]): 90
Downy brome plant response rating (0 to 100 scale) (downy brome): 90
Plant response rating, Galium (galium; [11]): 50
Galium plant response rating (0 to 100 scale) (galium): 70
Plant response rating, Wild buckwheat (wild buckwheat; [11]): 50
Wild buckwheat plant response rating (0 to 100 scale) (wild buckwheat): 100

CC(C)N(C(=O)n1oc(=O)n(C2CCCCCC2)c1=O)c1ccc(F)cc1F [Compound 342]
Plant response rating, C. ragweed (common ragweed [3]; [8]): 0
Plant response rating, C. ragweed (common ragweed [3]; [9]): 0
Plant response rating, C. ragweed (common ragweed [3]; [10]): 0
Plant response rating, C. ragweed (common ragweed [3]; Rate 250 g/ha): 100
Plant response rating, Guineagrass (guineagrass; [7]): 0
Plant response rating, Guineagrass (guineagrass; [8]): 0
Guineagrass plant response rating (guineagrass; [9]): 0
Plant response rating, Guineagrass (guineagrass; [9]): 80
Plant response rating, Guineagrass (guineagrass; [10]): 50
Plant response rating, Guineagrass (guineagrass; Rate 250 g/ha): 90
Plant response rating, Spanishneedles (Spanishneedles; [7]): 0
Plant response rating, Spanishneedles (Spanishneedles; [8]): 0
Spanishneedles plant response rating (Spanishneedles; [9]): 0
Spanishneedles plant response rating (Spanishneedles; [10]): 0
Plant response rating, Spanishneedles (Spanishneedles; Rate 250 g/ha): 0
Plant response rating, Green foxtail (Green foxtail [4]; Rate 64 g/ha): 0
Plant response rating, Green foxtail (Green foxtail [4]; Rate 125 g/ha): 60
